These results are taken from paper PMC11249637, “Interaction of the Atypical Tetracyclines Chelocardin and Amidochelocardin with Renal Drug Transporters” (ACS Pharmacology & Translational Science, 2024).

On the set-up of data set [1]: method as in PMID 339024. The settings on record: phase II clinical trial, 1970s; cited from earlier work.
The next data set addresses T1, mOat1 (Mus musculus, UniProt Q8VC69).
T1 construct: expressed in transfected cells; host or cells: HEK293
T1 sequence (Q8VC69 1-545): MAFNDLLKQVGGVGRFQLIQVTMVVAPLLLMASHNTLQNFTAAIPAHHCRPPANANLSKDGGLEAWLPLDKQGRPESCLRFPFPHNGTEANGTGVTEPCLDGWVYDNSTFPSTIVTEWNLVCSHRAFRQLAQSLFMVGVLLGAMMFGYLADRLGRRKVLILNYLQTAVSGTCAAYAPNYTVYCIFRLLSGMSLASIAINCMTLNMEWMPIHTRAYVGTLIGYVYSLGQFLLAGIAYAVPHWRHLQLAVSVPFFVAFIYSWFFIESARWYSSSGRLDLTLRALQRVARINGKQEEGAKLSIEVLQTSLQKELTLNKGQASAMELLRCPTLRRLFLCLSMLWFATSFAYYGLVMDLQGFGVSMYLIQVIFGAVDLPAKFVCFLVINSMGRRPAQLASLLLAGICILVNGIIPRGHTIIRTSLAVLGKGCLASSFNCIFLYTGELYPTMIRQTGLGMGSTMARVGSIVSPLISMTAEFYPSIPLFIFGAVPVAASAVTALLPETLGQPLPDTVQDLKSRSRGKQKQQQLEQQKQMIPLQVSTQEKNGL
As to the kind of experiment: Two-point inhibition of mOat1-mediated PAH uptake in transfected HEK293 cells. Type of data set: in vitro ADME. The settings on record: PAH 10 μM, 1 min. As to the method:
Well-characterized mOct1-, mOct2-, mOat1-, mOat2-, mOat3-, mMate1-, hOAT1-, hOAT3-, hOAT4-, hMRP2-, mMdr1a- and mMdr1b-transfected HEK293 cells and the respective vector-transfected control HEK293 cells were used.[42],[51],[52] All HEK293 cells (transporter-transfected and vector-transfected) were cultured in DMEM (Sigma, high glucose, 10% FBS, 1% penicillin (10,000 Units/mL)/streptomycin (10 mg/mL)) at 37°C under 5% CO2 in humidified atmosphere. The cells were routinely checked for the absence of mycoplasma infection. For the preparation of HEK293 cell monolayers, 24-well plates were pretreated with a poly-D-lysine hydrobromide solution (0.1 mg/mL). Each well was coated with 0.5 mL of poly-D-lysine solution and incubated for at least 15 min. After complete removal of the solution, the plates were dried for 30 min. Cells (vector-transfected and transporter-transfected) treated with trypsin were immediately seeded into 24-well plates and cultured for 3 days before being used for transport experiments.
For the uptake assay, the growth medium was aspirated, and each well was rinsed three times with 0.5 mL of incubation buffer (HBSS supplemented with 20 mM HEPES, pH 7.4) and incubated for 20 min at 37 °C. Afterward, buffers were removed, and 200 μL of the incubation buffer containing a radiolabeled substrate and the nonlabeled CHD and CDCHD or reference inhibitor (Table S1), respectively, was added to each well and incubated at 37 °C for designated time intervals. […] Cells were solubilized with 0.6 mL of 1N NaOH overnight and transferred into scintillation vials. ^3H and ^14C contents were measured after the addition of 2.5 mL of scintillator in a liquid scintillation counter.
The cellular protein amount was determined in parallel for each cell line (vector- and transporter-transfected) from six wells in a different 24-well reference plate using the Bradford method. […]
The inhibitory effect (I(%)) was calculated according to the formula: [drawing 5] […]

The structures appear in SMILES notation.

`CC(=O)C1=C(O)[C@@H](N)[C@H]2Cc3c(c(O)c4c(O)c(C)ccc4c3C)C(=O)[C@@]2(O)C1=O` [CHD, chelocardin]: in data set [1], the concentrations in urine is 11000 to 14000 ng/mL and the plasma concentrations was 1000 to 3000 ng/mL. Further, the “inhibitory effect on mOat1” value against mOat1 (1 and 10 μM tested) is “less than 50%”. The “inhibitory effect on mOat1 (in words)” value on mOat1 (1 and 10 μM) is “concentration-dependent inhibitory effects”. For the same molecule, at mOat1 (HEK293, at 10 μM, read-out: inhibitory effect on mOat1), the inhibition at 10 µM is roughly 50%.
